According to patent US20250115669A1, “FGFR1/KLB Targeting Agonistic Antigen-Binding Proteins and Conjugates Thereof with GLP-1R Agonistic Peptides” (SANOFI, priority 2020, published 2025):

Test: SAR16 (16H7) standalone and in combination with dulaglutide in DIO NASH cynomolgus monkeys
Assay type: in vivo, Cynomolgus monkey (Macaca fascicularis)
Procedure: Both were tested as single administration and in combination of both in the most relevant animal model that reflects the intended human population. Thus, the pharmacokinetic and pharmacodynamics of varying doses of the compounds were explored in the high-fat diet-induced obese and insulin resistance cynomolgus monkey model with diagnosed non-alcoholic steatohepatitis (NASH), mimicking the adult human NASH insulin resistance phenotype.
Cynomolgus monkey (Macaca fascicularis) was selected as the test species of choice for more meaningful results that were translatable to humans. More than 50 male monkeys were trained to identify 40 HFD induced obese NASH monkeys for the study.
There was a run-in period during which monkeys were injected subcutaneously with vehicle every third day. Food intake (calculated as TEI) and water intake were measured daily along with twice-weekly body weight evaluation and baseline value determination for metabolic biomarkers, safety biomarkers, IV glucose tolerance test (IVGTT), liver biopsy for gene expression analysis, and profile for glucose, insulin, and plasma lipids.
For the dosing period 40 trained monkeys (n=10 per group) were selected and stratified for body weight, fasting plasma glucose (FPG), and fasting plasma insulin (FPI) and insulin response from baseline during the IVGTT. All treatments were administered subcutaneously for […]. The dosing period was designed as a four-arm, dose-ramping study, and monkeys were treated with either vehicle, SAR10, SAR16, or a combination of both SAR10 and SAR16.
(§1) The SAR10-treated monkeys were dosed every 3rd day at 60 μg/kg initiated by dose ramping (3 dose steps, week 1: 20 μg/kg, week 2: 40 μg/kg, week 3 to runout: 60 μg/kg). The SAR16-treated monkeys were dosed at 1 mg/kg on day +1, 3 mg/kg on day +16, and then repeat maintenance dose of 3 mg/kg on day +46. The Combo-treated monkey were dosed with both SAR10 and SAR16 as the same pattern of the SAR10 and SAR16 treated monkeys.
Other parameters were also measured during the study, including food intake, body fat, plasma ketone bodies, as well as blood glucose control (glucose profile, fed, fasting plasma glucose and during ivGTT). One group received the vehicle. The compounds were administered subcutaneously (SC) (12 weeks “evaluation phase” plus run-out) to obese and NASH male cynomolgus macaques (Macaca fascicularis).
as §1, with “at” for “as”

[1] = compared to the vehicle treated group
[2] = day +76 compared to baseline (day −27)

Substance: 16H7: anti FGFR1c/KLB monoclonal antibody of WO 2011/071783, IgG2 backbone; HC SEQ ID NO: 1, LC SEQ ID NO: 2 [Ab 16H7]
- body weight (in words) (DIO NASH cynomolgus monkeys): Significant reductions in body weight
- food intake (DIO NASH cynomolgus monkeys): Reduction of food intake
- fasting glucose and fed glucose levels (12:30 and 18:30) [1]: No significant change
- ivGTT glucose AUC [1]: significantly decreased
- blood glucose levels, plasma profile [2]: appreciable decreases
- insulin, plasma profile [2]: decreased
- HDL levels, plasma profile (day +76 versus day −27): slightly increased
- T-ketones levels, plasma profile (day +76 versus day −27): increased T-ketones levels
- TC and LDL levels, plasma profile (day +76 versus day −27): quite stable
- TG values, plasma profile (day +76 versus day −27): lower TG values
- liver fat fraction change (MRI) (measured on days +81/+82/+83/+84, DIO NASH cynomolgus monkeys): −30.0%
- NASH steatosis score (more monkeys improved compared to vehicle treated group): improved steatosis score
